Test results taken from paper PMC11881437 (Molecular Medicine, 2025).
Where two headings read alike, the source gives them in different places.

Key:
HCT116 cells [1] = assay: MTT cell viability assay; assay type: cell-based, human; conditions: for IC50: Homo sapiens
Experimental: HCT116 cells (1 × 10^3 cells/well) were seeded in 96-well plates and cell viability was determined using MTT (Sigma-Aldrich, USA). […] MTT (0.5 mg/ml) was added to the cells after 48 h of treatment and incubated for 3 h in dark at 37 °C. The generated formazan complexes were dissolved in DMSO and the absorbance were measured at 550 nm using a spectrophotometer (Infinite® 200 PRO, TECAN, Switzerland) (Bhowmik et al. [2013]).

HCT116 cells [2] = assay: Annexin V/PI flow cytometry (apoptosis); assay type: cell-based, human; conditions: HCT116, 48 h, IC50 doses; untreated 7.9%
Experimental: Percentage of apoptotic cells were detected by Annexin V and propidium Iodide (PI) staining by flow cytometry analysis according to the protocols provided by manufacturer of the kit (Invitrogen, USA). In brief, cells were washed with PBS, suspended in binding buffer followed by incubation with Annexin V and PI. Then, the cells were analysed by using a flow cytometer (BD LSRFortessaTM X-20).

HCT116 cells [3] = assay: Atomic force microscopy of cell morphology; assay type: cell-based, human; conditions: HCT116, 24 h; 26 µM Orientin, 13 µM 5FU, 14 µM Orientin + 7 µM 5FU
Experimental: The material properties and dimensions of the probe used in contact mode were as follows: resonance frequency of 13 kHz (± 4 kHz), force constant of 0.2 N/m (± 0.14 N/m), cantilever length of 450 µm (± 10 µm), cantilever width of 38 µm (± 5 µm), cantilever thickness of 2 µm (± 1 µm), tip radius of 5 nm (± 1 nm), and tip height of 17 µm (± 2 µm). The scan area depends on the size of the cancer cell and ranged from 20 × 10–30 × 20 µm^2. Image processing and data analysis were performed using Picoview 1.10 software.

[4] = tested on: CD44+/CD133+ CSC population in CES derived from HCT116 cells; assay: Flow cytometry of CD44+/CD133+ cells in tumorospheres; assay type: cell-based, human; conditions: 24 h, 26 µM Orientin, 13 µM 5FU, 14 µM Orientin + 7 µM 5FU, untreated 18.4%
Experimental: (§1) HCT116 CRC cells were grown in ultra-low attachment plate in 3dGRO™ Spheroid Medium (Sigma-Aldrich, USA) for 7 days. Spheroids enriched with CSCs were considered as CSC enriched spheres (CESs) or commonly referred as tumorospheres. After 7 days, tumorospheres were subjected to different treatments for 24 h, as per experimental protocol. Media of tumorospheres of all the treatment groups were collected, centrifuged to remove the cell debris and suspended spheres, supernatants were collected and vacuum concentrated. These supernatants were referred as conditioned medium (CM) and were stored at − 20 °C until use.
Percentages of CD44^+/CD133^+ cell population were determined within tumorospheres and HIF1α positive cells were determined within the CD44^+/CD133^+ cell population using a flow cytometer (BD LSRFortessa™ X-20) and analyzed by BD FACSDiva™ software.

OCT4, SOX2 and NANOG = assay: Real time PCR of stemness factors in sorted CD44+/CD133+ cells; assay type: cell-based, human; conditions: 24 h
Excerpt: CD44^+/CD133^+ cells were isolated using MACS LS column (Miltenyi Biotec, USA) after leveled with CD44 and CD133 antibody conjugated with microbeads (Miltenyi Biotec, USA) by following manufacture’s protocol and subjected to further analysis. Cells expressing both CD44 and CD133 were isolated using magnetic cell sorter (MACS) (Guerriero et al. [2017]).
Total RNA was extracted from sorted CD44^+/CD133^+ cell population using TRIZOL (Thermo Fisher Scientific, USA) as described in manufacturer’s protocol. cDNAs were synthesized from RNA templates by using cDNA isolation kit (Bio-Rad, USA) and target genes like OCT4, SOX2 and NANOG were amplified by using real time PCR kit (Bio-Rad, USA) following manufacturer’s instructions by Roche LightCycler® 96 System (Switzerland). Glyceraldehyde-3-phosphate dehydrogenase (GAPDH) gene expression was used to normalize the expression of the target genes.

[5] = tested on: CSC enriched spheres (CES) derived from HCT116 cells; assay: Cellular ROS, NO and LPO level in CES; assay type: cell-based, human; conditions: 24 h, 26 µM Orientin, 13 µM 5FU, 14 µM Orientin + 7 µM 5FU
Experimental: Reactive oxygen species (ROS) level in the cells of treated and untreated CESs was measured by 2′,7′-dichlorofluorescein diacetate (DCFH-DA) standard protocol (Bhattacharjee et al. [2014]). The production of nitric oxide (NO) were estimated by the level of stable NO metabolites, viz., nitrate (NO3^–) and nitrite (NO2^–) ions by reaction with Griess reagent (Bryan and Grisham [2007]). […]

HUVEC = assay: Sprout (tube) formation assay with conditioned medium of CES; assay type: cell-based, human; conditions: for sprout formation: numbers and length of tubes: HUVEC, 24 h with CM of treated CES
Experimental: as §1
Matrigel was thawed overnight and the plate was coated with Matrigel (BD Bioscience, USA) and incubated for 1 h for polymerization. HUVECs (1 × 10^4) were seeded onto the Matrigel coated plate. After 8 h, media were changed with CM of interest. After 24 h of treatment tube formation was visualized microscopically and photographs were captured (DM 1000, Leica, Germany). The tube numbers were quantified by counting the branches between two discrete endothelial cells and length of the tubes were measured using Image J software by drawing a line along each tube and measuring the length in micrometer.

[6] = Serum cytotoxicity markers (ALT, AST, ALP, BUN, creatinine); assay type: in vivo; conditions: BALB/c mice, 10 days, mean ± SD, n = 6
Experimental: To determine the toxicity of only Orientin treatment in various doses, the mice were divided into five groups. Each group contained six animals (n = 6). Each animal of the vehicle control group (VC) was left untreated, while, mice of other four groups were administered Orientin intravenously with 1 mg/kg b.w, 3 mg/kg b.w, 5 mg/kg b.w and 10 mg/kg b.w dosage respectively for 28 days. […] All the treatments were continued for 10 days. On day 11 all the mice were sacrificed and different parameters were studied.
Blood samples were collected from the retro-orbital venous plexus of mice for quantitative analysis of alanine aminotransferase (ALT), aspartate aminotransferase (AST), alkaline phosphatase (ALP), creatinine and blood urea nitrogen (BUN) in serum following kit protocol (Sigma Aldrich, USA). Optical densities were determined by using a spectrophotometer (Infinite® 200 PRO, TECAN, Switzerland).

| Structure (SMILES) | reduction of IC50 in combination compared to individual treatment (HCT116 cells [1]; HCT116, MTT, 48 h) | IC50 (HCT116 cells [1]; HCT-116, HCT116, MTT, 48 h, used separately, read-out: IC50) [µM] | percentage of apoptotic cells (HCT116 cells [2]) [%] | cell morphology by AFM (HCT116 cells [3]) | CD44+/CD133+ cell population [4] [%] | mRNA level of stemness maintenance factors (OCT4, NANOG, SOX2) (OCT4, SOX2 and NANOG) | ROS, NO and LPO production in tumorospheres [5] | sprout formation: numbers and length of tubes (HUVEC) | ALP [6] [U/ml] | ALT [6] [U/ml] | AST [6] [U/ml] | BUN [6] [mg/dL] | Creatinine [6] [mg/dL] | IC50 (HCT116 cells [1]; HCT-116, 48 h) [µM] | number of sprouting and length of tubes, comparison with VEGFA neutralizing antibody (HUVEC; HUVEC with CM of treated CES, 5 µg/ml VEGFA neutralizing antibody, 26 µM Orientin) |
| --- | --- | --- | --- | --- | --- | --- | --- | --- | --- | --- | --- | --- | --- | --- | --- |
| O=c1[nH]cc(F)c(=O)[nH]1 [5FU, 5-Fluorouracil, reference compound] | approximately 50% | 13 | 54.5 | cell shrinkage, distortion, nuclear condensation and fragmentation, membrane blebbing and morphological changes of cellular bodies | 22.3 | increased | increased | instigated sprout formations by increasing the numbers and length of tubes | 168.44 ± 4.09 | 121.70 ± 3.95 | 219.16 ± 2.83 | 30.76 ± 0.46 | 0.73 ± 0.023 | – | – |
| O=c1cc(-c2ccc(O)c(O)c2)oc2c([C@@H]3O[C@H](CO)[C@@H](O)[C@H](O)[C@H]3O)c(O)cc(O)c12 [Orientin] | approximately 50% | – | 49.3 | cell shrinkage, distortion, nuclear condensation and fragmentation, membrane blebbing and morphological changes of cellular bodies | 13.5 | decreased | decrease | remarkably reduced | 94.23 ± 2.10 | 49.08 ± 1.99 | 134.7 ± 2.00 | 21.48 ± 0.53 | 0.49 ± 0.020 | 26 | same level of inhibition |
